“And” between values parts separate entries of the source, which are not always exact repeats. Equal entries are not always repeated.
System: BDF1 mice, Adenocarcinoma 755 s.c., tumor weight T/C
Experiment: NCI In Vivo Anticancer Drug Screen. Data for tumor model Adenocarcinoma 755 (subcutaneous) in B6D2F1 (BDF1) mice
Conditions: endpoint: mean tumor weight, higher = larger tumour
Procedure, shortened: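 Tumor-bearing mice receive test compound while controls get vehicle alone. Antitumor effect is scored from survival or tumor dimensions as a T/C quotient.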

[1] = dose: 25.0 mg/kg/injection, schedule: Q01DX011 (ip), vehicle: methylcellulose (MC)
[2] = dose: 30.0 mg/kg/injection, schedule: Q01DX011 (ip), vehicle: carboxymethylcellulose (CMC)
[3] = dose: 37.5 mg/kg/injection, schedule: Q01DX011 (ip), vehicle: methylcellulose (MC)
[4] = dose: 31.0 mg/kg/injection, schedule: Q01DX011 (ip), vehicle: methylcellulose (MC)
[5] = dose: 62.0 mg/kg/injection, schedule: Q01DX011 (ip), vehicle: methylcellulose (MC)
[6] = dose: 50.0 mg/kg/injection, schedule: Q01DX011 (ip), vehicle: methylcellulose (MC)
[7] = dose: 100.0 mg/kg/injection, schedule: Q01DX011 (ip), vehicle: methylcellulose (MC)

Which results are given for O=C(O)c1cc2ccccc2c2cccc([N+](=O)[O-])c12?
T/C (dose: 1.75 mg/kg/injection, schedule: Q01DX011 (ip), vehicle: carboxymethylcellulose (CMC)): 63 % of control; T/C (dose: 3.5 mg/kg/injection, schedule: Q01DX011 (ip), vehicle: carboxymethylcellulose (CMC)): 89 % of control; T/C (dose: 7.0 mg/kg/injection, schedule: Q01DX011 (ip), vehicle: carboxymethylcellulose (CMC)): 59 % of control

Which T/C [1] does the source give for CSc1ncnc2c1ncn2CCO here?
Its T/C is 119 % of control.

Which T/C [2] does the source give for Cc1cc(NC(=O)c2ccc(C(=O)Nc3ccc(N=Nc4cc(S(=O)(=O)O)c5cccc(S(=O)(=O)O)c5c4)c(C)c3)cc2)ccc1N=Nc1cc(S(=O)(=O)O)c2cccc(S(=O)(=O)O)c2c1 here?
Its T/C is 114 % of control.

How did the T/C (dose: 9.3 mg/kg/injection, schedule: Q01DX011 (ip), vehicle: methylcellulose (MC)) turn out when Cn1c(N)nc2nc[nH]c2c1=O was run?
The T/C was 79 % of control.

What about the T/C (dose: 18.7 mg/kg/injection, schedule: Q01DX011 (ip), vehicle: methylcellulose (MC)) of the same molecule?
Its T/C is 68 % of control.

And the T/C [3]?
Its T/C is 29 % of control.

What does the source list for Cc1ccccc1Nc1nc(N)nc(C)c1Br?
T/C (dose: 15.0 mg/kg/injection, schedule: Q01DX011 (ip), vehicle: methylcellulose (MC)): 55 % of control; T/C [4]: 88 % of control; T/C [5]: 106 % of control; T/C (dose: 125.0 mg/kg/injection, schedule: Q01DX011 (ip), vehicle: methylcellulose (MC)): 72 % of control; T/C (dose: 250.0 mg/kg/injection, schedule: Q01DX011 (ip), vehicle: methylcellulose (MC)): 81 % of control

For Nc1nc(SCC(=O)c2ccccc2)c2ncn(C3OC(CO)C(O)C3O)c2n1 (stereo unspecified), which T/C [3] is on record?
Its T/C is 15 % of control.

What about the T/C (dose: 75.0 mg/kg/injection, schedule: Q01DX011 (ip), vehicle: methylcellulose (MC)) of the same molecule?
The T/C was 5 % of control.

What about the T/C (dose: 150.0 mg/kg/injection, schedule: Q01DX011 (ip), vehicle: methylcellulose (MC)) of the same molecule?
The T/C was 5 % of control.

What does the source list for Clc1ncc2[nH]c(Cl)nc2n1?
T/C [2]: 96 % of control; T/C (dose: 60.0 mg/kg/injection, schedule: Q01DX011 (ip), vehicle: carboxymethylcellulose (CMC)): 112 % of control

For C[C@]12CC[C@@H]3c4ccc(O)cc4CC[C@H]3[C@@H]1CC[C@@H]2O, which T/C (dose: 125.0 mg/kg/injection, schedule: Q01DX011 (sc), vehicle: steriod suspending solution) is on record?
Its T/C is 77 % of control.

What about the T/C (dose: 250.0 mg/kg/injection, schedule: Q01DX011 (sc), vehicle: steriod suspending solution) of the same molecule?
The T/C was 32 % of control.

What about the T/C (dose: 500.0 mg/kg/injection, schedule: Q01DX011 (sc), vehicle: steriod suspending solution) of the same molecule?
The T/C was 65 % of control.

What about the T/C (dose: 1000.0 mg/kg/injection, schedule: Q01DX011 (sc), vehicle: steriod suspending solution) of the same molecule?
Its T/C is 42 % of control.

Which T/C (dose: 57.0 mg/kg/injection, schedule: Q01DX011 (ip), vehicle: methylcellulose (MC)) does the source give for O=C(CCBr)N1CN(C(=O)CCBr)CN(C(=O)CCBr)C1 here?
Its T/C is 117 % of control.

And the T/C (dose: 113.0 mg/kg/injection, schedule: Q01DX011 (ip), vehicle: methylcellulose (MC))?
The T/C was 97 % of control.

What about the T/C (dose: 225.0 mg/kg/injection, schedule: Q01DX011 (ip), vehicle: methylcellulose (MC)) of the same molecule?
Its T/C is 80 % of control.

How did the T/C (dose: 25.0 mg/kg/injection, schedule: Q01DX011 (ip), vehicle: carboxymethylcellulose (CMC)) turn out when NS(=O)(=O)c1nc(Cl)c2[nH]cnc2n1 was run?
Its T/C is 116 % of control.

And the T/C (dose: 75.0 mg/kg/injection, schedule: Q01DX011 (ip), vehicle: carboxymethylcellulose (CMC))?
Its T/C is 73 % of control.

And the T/C (dose: 225.0 mg/kg/injection, schedule: Q01DX011 (ip), vehicle: carboxymethylcellulose (CMC))?
The T/C was 69 % of control.

For CCOC1=C(N2CC2)C(=O)C(OCC)=C(N2CC2)C1=O, which T/C (dose: 0.08 mg/kg/injection, schedule: Q01DX011 (ip), vehicle: carboxymethylcellulose (CMC)) is on record?
Its T/C is 36 % of control.

What about the T/C (dose: 0.12 mg/kg/injection, schedule: Q01DX011 (ip), vehicle: carboxymethylcellulose (CMC)) of the same molecule?
The T/C was 94 % of control.

And the T/C (dose: 0.16 mg/kg/injection, schedule: Q01DX011 (ip), vehicle: carboxymethylcellulose (CMC))?
The T/C was 46 % of control.

What about the T/C (dose: 0.25 mg/kg/injection, schedule: Q01DX011 (ip), vehicle: carboxymethylcellulose (CMC)) of the same molecule?
The T/C was 55 % of control.

And the T/C (dose: 0.32 mg/kg/injection, schedule: Q01DX011 (ip), vehicle: carboxymethylcellulose (CMC))?
Its T/C is 48 % of control.

What about the T/C (dose: 0.5 mg/kg/injection, schedule: Q01DX011 (ip), vehicle: carboxymethylcellulose (CMC)) of the same molecule?
The T/C was 71 % of control.

And the T/C (dose: 0.63 mg/kg/injection, schedule: Q01DX011 (ip), vehicle: carboxymethylcellulose (CMC))?
Its T/C is 35 % of control.

What about the T/C (dose: 1.0 mg/kg/injection, schedule: Q01DX011 (ip), vehicle: carboxymethylcellulose (CMC)) of the same molecule?
The T/C was 44 % of control.

And the T/C (dose: 2.5 mg/kg/injection, schedule: Q01DX011 (ip), vehicle: methylcellulose (MC))?
Its T/C is 21 % of control.

And the T/C (dose: 10.0 micrograms/kg/injection, schedule: Q01DX011 (ip), vehicle: carboxymethylcellulose (CMC))?
The T/C was 111 % of control.

What about the T/C (dose: 40.0 micrograms/kg/injection, schedule: Q01DX011 (ip), vehicle: carboxymethylcellulose (CMC)) of the same molecule?
The T/C was 98 % of control.

And the T/C (dose: 80.0 micrograms/kg/injection, schedule: Q01DX011 (ip), vehicle: carboxymethylcellulose (CMC))?
The T/C was 115 % of control.

What does the source list for CCN(CC)CCOc1ccc(C2=C(c3ccccc3)CCc3cc(OC)ccc32)cc1?
T/C (dose: 25.0 mg/kg/injection, schedule: Q01DX011 (sc), vehicle: steriod suspending solution): 48 % of control; T/C (dose: 50.0 mg/kg/injection, schedule: Q01DX011 (sc), vehicle: steriod suspending solution): 32 % of control

CCCCCCCCCCCCCCCCCCNC was tested. Which T/C (dose: 14.0 mg/kg/injection, schedule: Q01DX011 (ip), vehicle: carboxymethylcellulose (CMC)) did it give?
The T/C was 77 % of control.

What does the source list for CN(C)/N=N/c1nc[nH]c1C(N)=O?
T/C (dose: 5.0 mg/kg/injection, schedule: Q01DX011 (ip), vehicle: carboxymethylcellulose (CMC)): 79 % of control; T/C (dose: 10.0 mg/kg/injection, schedule: Q01DX011 (ip), vehicle: carboxymethylcellulose (CMC)): 59 % of control; T/C (dose: 12.0 mg/kg/injection, schedule: Q01DX011 (ip), vehicle: methylcellulose (MC)): 50 % of control; T/C (dose: 16.0 mg/kg/injection, schedule: Q01DX011 (ip), vehicle: methylcellulose (MC)): 54 % of control; T/C (dose: 20.0 mg/kg/injection, schedule: Q01DX011 (ip), vehicle: carboxymethylcellulose (CMC)): 53 % of control and 57 % of control; T/C (dose: 20.0 mg/kg/injection, schedule: Q01DX011 (ip), vehicle: saline): 64 % of control; T/C [1]: 37 % of control; T/C (dose: 31.0 mg/kg/injection, schedule: Q01DX011 (ip), vehicle: carboxymethylcellulose (CMC)): 52 % of control; T/C [4]: 62 % of control; T/C (dose: 40.0 mg/kg/injection, schedule: Q01DX011 (ip), vehicle: saline): 63 % of control; T/C [6]: 30 % of control; T/C (dose: 62.0 mg/kg/injection, schedule: Q01DX011 (ip), vehicle: carboxymethylcellulose (CMC)): 47 % of control; T/C [5]: 94 % of control; T/C (dose: 62.5 mg/kg/injection, schedule: Q01DX011 (ip), vehicle: carboxymethylcellulose (CMC)): 55 % of control; T/C (dose: 80.0 mg/kg/injection, schedule: Q01DX011 (ip), vehicle: saline): 30 % of control; T/C [7]: 22 % of control; T/C (dose: 160.0 mg/kg/injection, schedule: Q01DX011 (ip), vehicle: saline): 17 % of control; T/C (dose: 600.0 mg/kg/injection, schedule: Q01DX011 (ip), vehicle: saline): 3 % of control

For CCOC(=O)C(Cc1ccc(N(CCCl)CCCl)cc1)NP1(=O)NCCCO1 (stereo unspecified), which T/C (dose: 36.0 mg/kg/injection, schedule: Q01DX011 (ip), vehicle: saline) is on record?
Its T/C is 21 % of control.

For CCCCn1cnc2c(SCc3ccccc3F)nc(N)nc21, which T/C (dose: 6.25 mg/kg/injection, schedule: Q01DX011 (ip), vehicle: methylcellulose (MC)) is on record?
Its T/C is 81 % of control.

And the T/C (dose: 12.5 mg/kg/injection, schedule: Q01DX011 (ip), vehicle: methylcellulose (MC))?
Its T/C is 41 % of control.

And the T/C [1]?
Its T/C is 18 % of control.

And the T/C [6]?
Its T/C is 3 % of control.

What about the T/C [7] of the same molecule?
Its T/C is 5 % of control.

Which T/C (dose: 1.8 mg/kg/injection, schedule: Q01DX011 (ip), vehicle: methylcellulose (MC)) does the source give for Nc1nc(SCc2ccccc2)c2ncn(C3CCCO3)c2n1 (stereo unspecified) here?
Its T/C is 68 % of control.

And the T/C (dose: 3.7 mg/kg/injection, schedule: Q01DX011 (ip), vehicle: methylcellulose (MC))?
The T/C was 45 % of control.

What about the T/C (dose: 7.5 mg/kg/injection, schedule: Q01DX011 (ip), vehicle: methylcellulose (MC)) of the same molecule?
The T/C was 2 % of control and 5 % of control.

What about the T/C (dose: 20.0 mg/kg/injection, schedule: Q01DX011 (ip), vehicle: methylcellulose (MC)) of the same molecule?
Its T/C is 2 % of control.

Source: PubChem BioAssay AID180 (DTP/NCI, 2004)
